In brackets after ≈: the same amount, converted by molar mass.
Columns and labels:
Pseudomonas aeruginosa [1] = experiment: Antimicrobial activity against Pseudomonas aeruginosa isolate 615R obtained from cystic fibrosis patient by disk diffusion method; format: functional
Pseudomonas aeruginosa [2] = experiment: Antimicrobial activity against Pseudomonas aeruginosa isolate 3066 obtained from cystic fibrosis patient by disk diffusion method; format: functional
Pseudomonas aeruginosa [3] = experiment: Antimicrobial activity against Pseudomonas aeruginosa isolate 2715 obtained from cystic fibrosis patient by agar dilution method
Pseudomonas aeruginosa [4] = experiment: Antimicrobial activity against Pseudomonas aeruginosa isolate 2721 obtained from cystic fibrosis patient by agar dilution method
Pseudomonas aeruginosa [5] = experiment: Antimicrobial activity against Pseudomonas aeruginosa isolate 615S obtained from cystic fibrosis patient by disk diffusion method; format: functional
Pseudomonas aeruginosa [6] = experiment: Antimicrobial activity against Pseudomonas aeruginosa isolate 2804 obtained from cystic fibrosis patient by disk diffusion method; format: functional
Pseudomonas aeruginosa [7] = experiment: Antimicrobial activity against ampicillin- and ticarcillin-resistant Pseudomonas aeruginosa FE60 mutant transformed with pAGH97 carrying mexXY F1018L mutant by twofold macrodilution method; format: functional
Pseudomonas aeruginosa [8] = experiment: Antimicrobial activity against Pseudomonas aeruginosa isolate 2998 obtained from cystic fibrosis patient by agar dilution method
Pseudomonas aeruginosa [9] = experiment: Antimicrobial activity against Pseudomonas aeruginosa isolate 2729 obtained from cystic fibrosis patient by disk diffusion method; format: functional
Pseudomonas aeruginosa [10] = experiment: Antimicrobial activity against Pseudomonas aeruginosa isolate 2933 obtained from cystic fibrosis patient
Pseudomonas aeruginosa [11] = experiment: Antimicrobial activity against Pseudomonas aeruginosa isolate 2998 obtained from cystic fibrosis patient
Pseudomonas aeruginosa [12] = experiment: Antimicrobial activity against mexB gene inactivated Pseudomonas aeruginosa isolate 3020S obtained from cystic fibrosis patient by agar dilution method
Pseudomonas aeruginosa [13] = experiment: Antimicrobial activity against Pseudomonas aeruginosa isolate 3066 obtained from cystic fibrosis patient
Pseudomonas aeruginosa [14] = experiment: Antimicrobial activity against Pseudomonas aeruginosa isolate 2729 obtained from cystic fibrosis patient
Pseudomonas aeruginosa [15] = experiment: Antimicrobial activity against Pseudomonas aeruginosa isolate 2858 obtained from cystic fibrosis patient by disk diffusion method; format: functional
Pseudomonas aeruginosa [16] = experiment: Antimicrobial activity against Pseudomonas aeruginosa isolate 2716 obtained from cystic fibrosis patient by agar dilution method
Pseudomonas aeruginosa [17] = experiment: Antimicrobial activity against Pseudomonas aeruginosa isolate 615R with inactivated mexB gene obtained from cystic fibrosis patient by disk diffusion method
Pseudomonas aeruginosa [18] = experiment: Antimicrobial activity against Pseudomonas aeruginosa isolate 2933 obtained from cystic fibrosis patient by disk diffusion method; format: functional
Pseudomonas aeruginosa [19] = experiment: Antimicrobial activity against Pseudomonas aeruginosa mutGR1 overexpressing mexXY mutant by twofold macrodilution method; format: functional
Pseudomonas aeruginosa [20] = experiment: Antimicrobial activity against mexB gene inactivated Pseudomonas aeruginosa isolate 2716 obtained from cystic fibrosis patient by agar dilution method
Pseudomonas aeruginosa [21] = experiment: Antimicrobial activity against Pseudomonas aeruginosa isolate 3020R obtained from cystic fibrosis patient by agar dilution method
Pseudomonas aeruginosa [22] = experiment: Antimicrobial activity against Pseudomonas aeruginosa PAO1 by twofold macrodilution method; format: functional
Pseudomonas aeruginosa [23] = experiment: Antimicrobial activity against mexB gene inactivated Pseudomonas aeruginosa isolate 2721 obtained from cystic fibrosis patient by agar dilution method
Pseudomonas aeruginosa [24] = experiment: Antimicrobial activity against mexB gene inactivated Pseudomonas aeruginosa isolate 3020R obtained from cystic fibrosis patient by agar dilution method
Pseudomonas aeruginosa [25] = experiment: Antimicrobial activity against Pseudomonas aeruginosa isolate 3020S obtained from cystic fibrosis patient by disk diffusion method; format: functional
Pseudomonas aeruginosa [26] = experiment: Antimicrobial activity against mexB gene inactivated Pseudomonas aeruginosa isolate 2715 obtained from cystic fibrosis patient by agar dilution method
Pseudomonas aeruginosa [27] = experiment: Ratio of MIC for mexB deficient Pseudomonas aeruginosa FB1 mutant to Pseudomonas aeruginosa PAO1; format: functional
Pseudomonas aeruginosa [28] = experiment: Antimicrobial activity against mexXY operon inactivated Pseudomonas aeruginosa PAO1 by twofold macrodilution method; format: functional
Pseudomonas aeruginosa [29] = experiment: Antimicrobial activity against ampicillin- and ticarcillin-resistant Pseudomonas aeruginosa FE60 mutant transformed with pAGH97 carrying mexXY operon by twofold macrodilution method; format: functional
Pseudomonas aeruginosa [30] = experiment: Antimicrobial activity against ampicillin- and ticarcillin-resistant Pseudomonas aeruginosa FE60 mutant transformed with pAGH97 carrying mexXY F29S mutant by twofold macrodilution method; format: functional
Pseudomonas aeruginosa [31] = experiment: Antimicrobial activity against mexXY deficient ampicillin- and ticarcillin-resistant Pseudomonas aeruginosa FE60 mutant by twofold macrodilution method; format: functional
Pseudomonas aeruginosa [32] = experiment: Antimicrobial activity against mexXY operon inactivated Pseudomonas aeruginosa isolate 2858 obtained from cystic fibrosis patient by disk diffusion method; format: functional, organism-based
Pseudomonas aeruginosa [33] = experiment: Antimicrobial activity against mexXY operon inactivated Pseudomonas aeruginosa isolate 615S obtained from cystic fibrosis patient by disk diffusion method; format: functional, organism-based

Row | Compound | MIC (Pseudomonas aeruginosa [1]) | MIC (Pseudomonas aeruginosa [2]) | MIC (Pseudomonas aeruginosa [3]) | MIC (Pseudomonas aeruginosa [4]) | MIC (Pseudomonas aeruginosa [5]) | MIC (Pseudomonas aeruginosa [6]) | MIC (Pseudomonas aeruginosa [7]) | MIC (Pseudomonas aeruginosa [8]) | MIC (Pseudomonas aeruginosa [9]) | MIC (Pseudomonas aeruginosa [15]) | MIC (Pseudomonas aeruginosa [16]) | MIC (Pseudomonas aeruginosa [18]) | MIC (Pseudomonas aeruginosa [19]) | MIC (Pseudomonas aeruginosa [21]) | MIC (Pseudomonas aeruginosa [22]) | MIC (Pseudomonas aeruginosa [25]) | fold change (FC) (Pseudomonas aeruginosa [27]) | MIC (Pseudomonas aeruginosa [28]) | MIC (Pseudomonas aeruginosa [29]) | MIC (Pseudomonas aeruginosa [30]) | further results
1 | O=C(O)c1cn(C2CC2)c2cc(N3CCNCC3)c(F)cc2c1=O [CIPROFLOXACIN] | 1 µg/mL (≈ 3.02 µM) | 16 µg/mL (≈ 48.3 µM) | 1 µg/mL (≈ 3.02 µM) | 1 µg/mL (≈ 3.02 µM) | 4 µg/mL (≈ 12.1 µM) | 16 µg/mL (≈ 48.3 µM) | 1 µg/mL (≈ 3.02 µM) | 1 µg/mL (≈ 3.02 µM) | 1 µg/mL (≈ 3.02 µM) |  |  |  |  |  |  |  |  |  |  |  | 
2 | CO[C@@H]1[C@@H](OC(N)=O)[C@@H](O)[C@H](Oc2ccc3c(O)c(NC(=O)c4ccc(O)c(CC=C(C)C)c4)c(=O)oc3c2C)OC1(C)C [NOVOBIOCIN] | 4 µg/mL (≈ 6.53 µM) | 32 µg/mL (≈ 52.2 µM) | 16 µg/mL (≈ 26.1 µM) | 32 µg/mL (≈ 52.2 µM) | 64 µg/mL (≈ 104 µM) | 8 µg/mL (≈ 13.1 µM) |  | 32 µg/mL (≈ 52.2 µM) | 32 µg/mL (≈ 52.2 µM) | 64 µg/mL (≈ 104 µM) | 32 µg/mL (≈ 52.2 µM) | 8 µg/mL (≈ 13.1 µM) | 512 µg/mL (≈ 836 µM) | 16 µg/mL (≈ 26.1 µM) | 512 µg/mL (≈ 836 µM) | 512 µg/mL (≈ 836 µM) | 16 | 32 µg/mL (≈ 52.2 µM) |  |  | MIC (Pseudomonas aeruginosa [10]): 4 µg/mL (≈ 6.53 µM); MIC (Pseudomonas aeruginosa [11]): 32 µg/mL (≈ 52.2 µM); MIC (Pseudomonas aeruginosa [12]): 8 µg/mL (≈ 13.1 µM); MIC (Pseudomonas aeruginosa [13]): 32 µg/mL (≈ 52.2 µM); MIC (Pseudomonas aeruginosa [14]): 32 µg/mL (≈ 52.2 µM); MIC (Pseudomonas aeruginosa [17]): 4 µg/mL (≈ 6.53 µM); MIC (Pseudomonas aeruginosa [20]): 32 µg/mL (≈ 52.2 µM); MIC (Pseudomonas aeruginosa [23]): 32 µg/mL (≈ 52.2 µM); MIC (Pseudomonas aeruginosa [24]): 16 µg/mL (≈ 26.1 µM); MIC (Pseudomonas aeruginosa [26]): 8 µg/mL (≈ 13.1 µM)
3 | CC1(C)S[C@@H]2[C@H](NC(=O)[C@H](C(=O)O)c3ccsc3)C(=O)N2[C@H]1C(=O)O [TICARCILLIN] | 2 µg/mL (≈ 5.2 µM) | 2 µg/mL (≈ 5.2 µM) | 2 µg/mL (≈ 5.2 µM) | 2 µg/mL (≈ 5.2 µM) | 1 µg/mL (≈ 2.6 µM) | 0.5 µg/mL (≈ 1.3 µM) |  | 0.5 µg/mL (≈ 1.3 µM) | 0.5 µg/mL (≈ 1.3 µM) | 2 µg/mL (≈ 5.2 µM) | 2 µg/mL (≈ 5.2 µM) | 0.5 µg/mL (≈ 1.3 µM) | 32 µg/mL (≈ 83.2 µM) | 2 µg/mL (≈ 5.2 µM) | 32 µg/mL (≈ 83.2 µM) | 16 µg/mL (≈ 41.6 µM) | 64 |  |  |  | 
4 | NC[C@H]1O[C@H](O[C@H]2[C@H](O)[C@@H](O[C@H]3O[C@H](CO)[C@@H](O)[C@H](N)[C@H]3O)[C@H](N)C[C@@H]2N)[C@H](N)C[C@@H]1O [TOBRAMYCIN] | 2 µg/mL (≈ 4.28 µM) | 16 µg/mL (≈ 34.2 µM) | 2 µg/mL (≈ 4.28 µM) | 4 µg/mL (≈ 8.56 µM) | 0.25 µg/mL (≈ 0.535 µM) | 64 µg/mL (≈ 137 µM) | 1 µg/mL (≈ 2.14 µM) | 4 µg/mL (≈ 8.56 µM) | 2 µg/mL (≈ 4.28 µM) | 1 µg/mL (≈ 2.14 µM) | 1 µg/mL (≈ 2.14 µM) | 4 µg/mL (≈ 8.56 µM) | 1 µg/mL (≈ 2.14 µM) | 4 µg/mL (≈ 8.56 µM) | 0.5 µg/mL (≈ 1.07 µM) | 0.5 µg/mL (≈ 1.07 µM) |  |  | 0.5 µg/mL (≈ 1.07 µM) | 0.5 µg/mL (≈ 1.07 µM) | MIC (Pseudomonas aeruginosa [31]): 0.06 µg/mL (≈ 0.128 µM)
5 | GENTAMICIN | 8 µg/mL | 64 µg/mL |  |  | 1 µg/mL | 64 µg/mL | 2 µg/mL |  | 8 µg/mL | 4 µg/mL |  | 16 µg/mL | 2 µg/mL |  | 1 µg/mL | 2 µg/mL |  | 0.125 µg/mL | 1 µg/mL | 1 µg/mL | MIC (Pseudomonas aeruginosa [32]): 0.125 µg/mL; MIC (Pseudomonas aeruginosa [31]): 0.125 µg/mL; MIC (Pseudomonas aeruginosa [33]): 0.125 µg/mL

From ChEMBL document CHEMBL1649198, “Efflux unbalance in Pseudomonas aeruginosa isolates from cystic fibrosis patients” (2009)
